According to ChEMBL document CHEMBL1123357, “Chemotherapeutic approaches to the treatment of the acquired immune deficiency syndrome (AIDS)” (1986):
≈ marks a conversion by molar mass, not a printed value.

Key:
ATH-8 cell line [1] = experiment: Selectivity index expressed as ratio of compound concentration required to reduce the growth of normal uninfected ATH8 cells by 50% to the compound concentration (MIC); assay type: functional, Homo sapiens
ATH-8 cell line [2] = experiment: Minimum inhibitory concentration of the compound, achieving a complete protection of ATH8 cells against the cytopathic effect of HTLV-III / LAV […]; assay type: functional; conditions: Homo sapiens

| SMILES | SI (ATH-8 cell line [1]) | MIC (ATH-8 cell line [2]) [µM] |
| --- | --- | --- |
| Cc1cc(-c2ccc(/N=N/c3ccc4c(S(=O)(=O)[O-])cc(S(=O)(=O)[O-])c(N)c4c3O)c(C)c2)ccc1/N=N/c1ccc2c(S(=O)(=O)[O-])cc(S(=O)(=O)[O-])c(N)c2c1O.[Na+].[Na+].[Na+].[Na+] [EVANS BLUE] | >4 | 26 |
| Nc1ccn([C@H]2CC[C@@H](CO)O2)c(=O)n1 [ZALCITABINE] | 50 | 0.5 (≈ 0.106 µg/mL) |
| Cc1ccc(C(=O)Nc2ccc(S(=O)(=O)O)c3cc(S(=O)(=O)O)cc(S(=O)(=O)O)c23)cc1NC(=O)c1cccc(NC(=O)Nc2cccc(C(=O)Nc3cc(C(=O)Nc4ccc(S(=O)(=O)O)c5cc(S(=O)(=O)O)cc(S(=O)(=O)O)c45)ccc3C)c2)c1 [SURAMIN] | 5 | 35 (≈ 45.4 µg/mL) |
| O=C(O)P(=O)(O)O [FOSCARNET] | >1 | 350 (≈ 44.1 µg/mL) |
| O=C(O)C1=CC(=C(c2ccc(O)c(C(=O)O)c2)c2ccc(O)c(C(=O)O)c2)C=CC1=O [AURINTRICARBOXYLIC ACID] | >2.5 | 47 (≈ 19.9 µg/mL) |
| Cc1cn([C@H]2C[C@H](N=[N+]=[N-])[C@@H](CO)O2)c(=O)[nH]c1=O [ZIDOVUDINE] | >50 | 1 (≈ 0.267 µg/mL) |
| NC(=O)c1ncn([C@@H]2O[C@H](CO)[C@@H](O)[C@H]2O)n1 [RIBAVIRIN] | <0.3 | > 400 |
